Results reported in US5585352A, “Method of treating septic shock using thymosin-α 1” (The George Washington University Medical Center, priority 1994, dated 1996).
No end group written: not given here.

Legend:
[1] = tested on: T × β2; experiment: Txβ2 levels in a septic shock model in rat; assay type: in vivo, Sprague-Dawley rats; conditions: Rats with Septic Shock + Tα1 1 mg/rat × 3
From the text: (§1) Using a septic shock model in rats (Sprague-Dawley, male, 200-225 g each), the effect of thymosin α1 alone and together with antibiotics was studied. Peritonitis was induced in rats in the following way. A 1-cm incision was made into the peritoneal which exposed the cecum. A tight ligature was placed around the cecum with 4-0 suture distal to the insertion of the small bowel, forming an area of devitalized tissue while maintaining bowel continuity. A puncture wound was made with 16-gauge needle into the anti-mesenteric surface of the cecum and a small amount of fecal contents was expressed through the wound. The cecum was replaced into the peritoneal cavity, and the anterior peritoneal wall and skin were closed with surgical staples. Each animal was given a bolus of normal saline (15 ml/kg) for hydration and allowed to recover overnight.
(§2) **At 0 hr, 2 hr, and 4 hr post induction of peritonitis

[2] = tested on: glutathione (RBC GSH); experiment: Erythrocyte glutathione levels in mice treated with lethal doses of endotoxin; assay type: in vivo, Swiss-Webster mice
Description: (§3) Swiss-Webster mice 4-6 weeks of age (20-25 g) were divided into 2 groups: endotoxic mice (endotoxin 60 mg/kg i.p. in acute treatment) and endotoxic mice treated with 3 injections of 100 μg Tα1 (5 minutes, 2 and 4 hours post administration of the endotoxin).
*Total erythrocyte glutathione, 98% of which is in the reduced form (GSH)
was determined by the enzymatic "cyclic method."-

[3] = tested on: 6-keto-PGF1α; experiment: 6-keto-PGF1α plasma levels in mice after lethal dose of endotoxin; assay type: in vivo, Swiss-Webster mice
Description: as §3
(§4) Using the same methods and materials as in examples 1 and 2, the effect which Tα1 has on blood levels of IL-1α, TNF-α, PAG, Txβ2 and 6-keto-PGF1 α, which are pathological mediators of endotoxin induced lethality, was studied.

[4] = tested on: blood free radical levels; experiment: Blood free radical levels; assay type: in vivo; conditions: compared with SOD
[5] = tested on: Rats with Septic Shock; experiment: Survival in septic shock model in rats (peritonitis by cecal ligation and puncture); assay type: in vivo, Sprague-Dawley rats; conditions: for Survival of Sprague-Dawley rats, 48 hr / Survival of Sprague-Dawley rats, 72 hr / Survival of Sprague-Dawley rats, 24 hr: rats with peritonitis, both groups got antibiotic (gentamicin sulfate, 1 mg/rat), 10 at 0 hr; for Survival of Sprague-Dawley rats, 48 hr / Survival of Sprague-Dawley rats, 72 hr: thymosin α1 1 mg/rat × 3; for Survival of Sprague-Dawley rats, 24 hr: thymosin α1 1 mg/rat × 3 at 0, 2 and 4 hr post induction; for Number of Rats Alive, 24 h / Number of Rats Alive, 48 h / Number of Rats Alive, 72 h: Rats with Septic Shock + Tα1 1 mg/rat × 3, 10 alive at 0 h
From the text: as §1
*gentamicin sulfate, 1 mg/rat
as §2

[6] = tested on: Txβ2; experiment: Txβ2 plasma levels in mice after lethal dose of endotoxin; assay type: in vivo, Swiss-Webster mice
Description: as §3, §4

[7] = tested on: TNFα; experiment: TNFα levels in a septic shock model in rat; assay type: in vivo, Sprague-Dawley rats; conditions: Rats with Septic Shock + Tα1 1 mg/rat × 3
From the text: as §1, §2

[8] = tested on: PAF; experiment: PAF blood levels in mice after lethal dose of endotoxin; assay type: in vivo, Swiss-Webster mice
Description: as §3, §4

[9] = tested on: IL1 α; experiment: IL1α levels in a septic shock model in rat; assay type: in vivo, Sprague-Dawley rats; conditions: Rats with Septic Shock + Tα1 1 mg/rat × 3
From the text: as §1, §2

[10] = tested on: malonyldialdehyde; experiment: Blood hydroperoxide (malonyldialdehyde) levels in mice treated with lethal doses of endotoxin; assay type: in vivo, Swiss-Webster mice
Description: as §3
*Whole blood samples (0.5 ml) were obtained by tail bleds 1 hour after
endotoxin administration

[11] = tested on: malonyldialdehyde; experiment: Lipid peroxidation (blood malonyldialdehyde) in a septic shock model in rat; assay type: in vivo, Sprague-Dawley rats; conditions: Rats with Septic + Tα1 1 mg/rat × 3
From the text: as §1, §2

[12] = tested on: IL-1α; experiment: Serum IL-1α levels in mice treated with lethal doses of endotoxin; assay type: in vivo, Swiss-Webster mice
Description: as §3
(§5) *Mice were pretreated with SOD (super oxide dismatase), 30 minutes before
(§6) endotoxin administration XX blood for determined of TNFα and
(§7) IL1α levels was collected 1 hr after endotoxin administration.
as §4

[13] = tested on: TNF-α; experiment: Serum TNF-α levels in mice treated with lethal doses of endotoxin; assay type: in vivo, Swiss-Webster mice
Description: as §3, §5, §6, §7, §4

[14] = tested on: Cerebellar cortex cyclic GMP; experiment: cGMP cerebellar levels in mice treated with lethal doses of endotoxin; assay type: in vivo, Swiss-Webster mice
Description: as §3

[15] = tested on: 6-keto-PGF1; experiment: 6-keto-PGF1 levels in a septic shock model in rat; assay type: in vivo, Sprague-Dawley rats; conditions: Rats with Septic Shock + Tα1 1 mg/rat × 3
From the text: as §1, §2

[16] = tested on: glutathione (RBC GSH); experiment: Glutathione levels in a rat septic shock model; assay type: in vivo, Sprague-Dawley rats; conditions: Rats with Septic Shock + Tα1 mg/rat × 3
From the text: as §1, §2

[17] = tested on: endotoxic mice; experiment: Survival of Swiss Webster mice following lethal endotoxin dose and Tα1; assay type: in vivo
Description: as §3
Using the same materials and methods as in example 1, the time and dose-dependency of the protective effect of Tα1 on endotoxin lethality were studied.

[18] = during sepsis, species not given
[19] = Table XII, Endotoxin 60 mg/kg + Tα1 100 μg administered immediately following
[20] = after administration of a lethal dose of endotoxin
[21] = Table XI, Endotoxin 60 mg/kg + Tα1 100 μg administered immediately following
[22] = Table X, Endotoxin 60 mg/kg + Tα1 100 μg administered immediately following
[23] = Table XIII, Endotoxin 60 mg/kg + Tα1 100 μg administered immediately following
[24] = first of two unlabelled columns
[25] = second of two unlabelled columns
[26] = Table IX, Endotoxin 60 mg/kg + Tα1 100 μg administered immediately following
[27] = Table VII, serum, pretreatment with SOD 3.3 × 10^4 μ/kg (30 minutes before endotoxin) or Tα1 100 μg/mice, blood 1 hr after endotoxin
[28] = Table VI, serum, Endotoxin 60 mg/kg + Tα1
[29] = Table XIV, Endotoxin 60 mg/kg + Tα1 100 μg administered immediately following
[30] = Table I, Endotoxin 60 mg/kg + Tα1 100 μg 3×, 7 alive at 0 hrs
[31] = Table II, Endotoxin 60 mg/kg + Tα1 100 μg 3×, 8 alive at 0 hr.
[32] = Table VIII, Tα1 10 μg, 3×, immediately following, 2 and 4 hrs. after endotoxin, 8 alive at 0 hrs
[33] = Table VIII, Tα1 100 μg, 3×, 2, 4 and 6 hrs. after endotoxin, 8 alive at 0 hrs
[34] = Table VIII, Tα1 100 μg, 3×, immediately following, 2 and 4 hrs. after endotoxin, 8 alive at 0 hrs

Thymosin α1 (SDAAVDTSSEITTKDLKEKKEVVEEAEN; ends and bridges not checked; UniProt P06454 2-29, looked up) [Tα1, peptide originally derived from the Thymus gland, 28 amino acids; synthetic Tα1 prepared by solid phase peptide synthesis]
T × β2 [1]: 2353 ± 197 pg/mL
RBC GSH ([2]; Endotoxin 60 mg/kg + Tα1 100 μg/mouse, total erythrocyte glutathione): 1.12 ± 0.12 μmoles/ml cells
circulating blood levels of glutathione [2, 18]: returns circulatory gluthathine leves to normal or about normal
6-keto-PGF1α (plasma levels), 0.5 hr. [3, 19]: 224 ± 19 pg/mL
6-keto-PGF1α (plasma levels), 1 hr [3, 19]: 745 ± 62 pg/mL
6-keto-PGF1α (plasma levels), 2 hr [3, 19]: 341 ± 33 pg/mL
6-keto-PGF1α (plasma levels), 3 hr [3, 19]: 205 ± 19 pg/mL
6-keto-PGF1 α plasma levels [3, 20]: decreased
blood free radical levels [4]: reduce blood free radical levels almost as much as SOD
Survival of Sprague-Dawley rats, 48 hr ([5]; Table XV): 6
Survival of Sprague-Dawley rats, 72 hr ([5]; Table XV): 6
Survival of Sprague-Dawley rats, 24 hr ([5]; Table XV): 8
survival of rats ([5]; Table XV, with antibiotic): increased the survival of rats
Number of Rats Alive, 24 h ([5]; Table XX): 9
Number of Rats Alive, 48 h ([5]; Table XX): 9
Number of Rats Alive, 72 h ([5]; Table XX): 5
Number of Rats Alive, 24 h ([5]; Table XXI): 8
Number of Rats Alive, 48 h ([5]; Table XXI): 7
Number of Rats Alive, 72 h ([5]; Table XXI): 3
survival rate of rats with septic shock ([5]; Tables XX and XXI): increases the survival rate of rats with septic shock
T × β2 (plasma levels), 0.5 hr. [6, 21]: 910 ± 85 pg/mL
T × β2 (plasma levels), 2 hr [6, 21]: 530 ± 47 pg/mL
T × β2 (plasma levels), 1 hr ([6]; Table XI, Endotoxin 60 mg/kg + Tα1 100 μg administered immediately following, spread 185 printed): 1921 pg/mL
T × β2 (plasma levels), 3 hr ([6]; Table XI, Endotoxin 60 mg/kg + Tα1 100 μg administered immediately following, spread 260 printed): 391 pg/mL
Txβ2 plasma levels [6, 20]: decreased
TNFα [7]: 1231 ± 129 pg/mL
PAF (plasma levels), 0.5 hr [8, 22]: 48 ± 3 pg/mL
PAF (plasma levels), 1 hr [8, 22]: 136 ± 9 pg/mL
PAF (plasma levels), 2 hr [8, 22]: 68 ± 4 pg/mL
PAF (plasma levels), 3 hr [8, 22]: 32 ± 2 pg/mL
PAF (serum levels), 1 hr [8, 23]: 783 pg/mL
PAF (serum levels), 3 hr [8, 23]: 508 pg/mL
PAF (serum levels), 5 hr [8, 23]: 429 pg/mL
PAF plasma levels [8, 20]: decreased
IL1 α [9]: 689 ± 53 pg/mL
Blood Levels of malonyldialdehyde ([10]; Endotoxin 60 mg/kg + Tα1 100, whole blood 1 hour after endotoxin administration): 16.9 ± 1.36 nMol MDA
peroxidation of lipids in blood [10, 18]: returned to normal or about normal
Blood Levels of malonyldialdehyde [11, 24]: 17.1 ± 1.6 nNol MDA
Blood Levels of malonyldialdehyde [11, 25]: 21.9 ± 2.3 nNol MDA
IL-1α (serum levels), 1 hr [12, 26]: 83 ± 7.1 pg/mL
IL-1α (serum levels), 3 hr [12, 26]: 165 ± 13.7 pg/mL
IL-1 α [12, 27]: 109 ± 71 pg/mL
IL-1α serum levels [12, 20]: decreased
TNF-α, 1 hr [13, 28]: 638 ± 57 pg/mL
TNF-α, 3 hr [13, 28]: 426 ± 37 pg/mL
TNF-α, 5 hr [13, 28]: 297 ± 27 pg/mL
TNF-α [13, 27]: 285 ± 23.6 pg/mL
TNF-α (serum levels), 1 hr [13, 29]: 783 pg/mL
TNF-α (serum levels), 3 hr [13, 29]: 508 pg/mL
TNF-α (serum levels), 5 hr [13, 29]: 429 pg/mL
TNF-α serum levels [13, 20]: decreased
Cerebellar cortex cyclic GMP ([14]; Endotoxin 60 mg/kg i.p. + Tα1 100 μg): 14.6 ± 1.2 pmol per mg/protein
cerebellar cGMP levels ([14]; administration during sepsis): decreases cerebellar cGMP levels
6-keto-PGF1 [15]: 1132 ± 96 pg/mL
RBC GSH [16, 24]: 1.29 ± 0.07 μmoles/ml cells
RBC GSH [16, 25]: 1.20 ± 0.085 μmoles/ml cells
Number of Mice Alive, 24 hrs ([17]; Table I, Endotoxin 60 mg/kg + Tα1 100 μg 3× (5 minutes, 2 and 4 hours post endotoxin), 7 alive at 0 hrs): 7
Number of Mice Alive, 48 hrs [17, 30]: 7
Number of Mice Alive, 72 hrs [17, 30]: 7
Number of Mice Alive, 24 hr. [17, 31]: 8
Number of Mice Alive, 48 hr. [17, 31]: 8
Number of Mice Alive, 72 hr. [17, 31]: 8
Number of Mice Alive, 7 day [17, 31]: 8
Number of Mice Alive, 14 day [17, 31]: 8
Number of Mice Alive, 24 hrs ([17]; Table VIII, Endotoxin 60 mg/kg + Tα1 10 μg, 3×, immediately following, 2 and 4 hrs. after endotoxin, 8 alive at 0 hrs): 8
Number of Mice Alive, 24 hrs ([17]; Table VIII, Endotoxin 60 mg/kg + Tα1 100 μg, 3×, 2, 4 and 6 hrs. after endotoxin, 8 alive at 0 hrs): 8
Number of Mice Alive, 24 hrs ([17]; Table VIII, Endotoxin 60 mg/kg + Tα1 100 μg, 3×, immediately following, 2 and 4 hrs. after endotoxin, 8 alive at 0 hrs): 8
Number of Mice Alive, 48 hrs [17, 32]: 5
Number of Mice Alive, 72 hrs [17, 32]: 5
Number of Mice Alive, 96 hrs [17, 32]: 5
Number of Mice Alive, 120 hrs [17, 32]: 5
Number of Mice Alive, 48 hrs [17, 33]: 8
Number of Mice Alive, 72 hrs [17, 33]: 8
Number of Mice Alive, 96 hrs [17, 33]: 8
Number of Mice Alive, 120 hrs [17, 33]: 8
Number of Mice Alive, 48 hrs [17, 34]: 8
Number of Mice Alive, 72 hrs [17, 34]: 8
Number of Mice Alive, 96 hrs [17, 34]: 8
Number of Mice Alive, 120 hrs [17, 34]: 8
survival rate of mice treated with endotoxin ([17]; Tα1 administered 3 times post administration of endotoxin, Tables I and II): 100%
effective protective dose ([17]; administered three times, endotoxin lethality in mice): 100 µg
protective effect on endotoxin toxicity ([17]; given immediately following, 2 and 4 hours after, or 2, 4 and 6 hours after endotoxin treatment): had protective effect on endotoxin toxicity

gentamicin sulfate [antibiotic, reference compound]
Survival of Sprague-Dawley rats, 48 hr ([5]; Table XV): 1
Survival of Sprague-Dawley rats, 72 hr ([5]; Table XV): 0
Survival of Sprague-Dawley rats, 24 hr ([5]; Table XV): 1
